Measured values taken from ChEMBL document CHEMBL1201862, “PubChem BioAssay data set” (2004).
Calls of active or inactive are those of the source.

Tests used:
[1] = viability loss in THP-1 monocytes – THP-1 cells, cytotoxicity control for Vif-APOBEC3G degradation inhibitor project, dose response (AID 1117359); assay type: functional; settings: THP-1
Cytochrome P450 2D6 = Cytochrome P450 2D6 (Homo sapiens, UniProt P10635);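 note: CYP2D6 member of a cytochrome P450 panel assay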
Cytochrome P450 3A4 = Cytochrome P450 3A4 (Homo sapiens, UniProt P08684); settings: Potency;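 note: confirmatory qHTS run detecting inhibitors and substrates of CYP3A4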
Sequence of Cytochrome P450 3A4 (P08684 whole entry): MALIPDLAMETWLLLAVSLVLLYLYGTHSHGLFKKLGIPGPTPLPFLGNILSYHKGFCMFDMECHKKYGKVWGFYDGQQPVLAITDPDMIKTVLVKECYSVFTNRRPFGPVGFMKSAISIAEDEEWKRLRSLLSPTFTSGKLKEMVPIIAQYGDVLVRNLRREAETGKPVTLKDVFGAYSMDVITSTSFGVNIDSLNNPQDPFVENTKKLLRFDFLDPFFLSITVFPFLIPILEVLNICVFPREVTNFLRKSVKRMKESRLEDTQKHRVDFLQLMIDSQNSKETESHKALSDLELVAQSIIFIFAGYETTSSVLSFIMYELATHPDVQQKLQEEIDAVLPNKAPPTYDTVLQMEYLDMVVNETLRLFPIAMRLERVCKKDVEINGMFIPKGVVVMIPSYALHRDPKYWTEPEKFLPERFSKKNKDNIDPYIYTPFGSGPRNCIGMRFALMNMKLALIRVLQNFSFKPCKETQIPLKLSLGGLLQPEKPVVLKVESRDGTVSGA

HeLa = experiment: viability loss in HeLa cells – cell-based, 24 h, cherry-picked samples, cytotoxicity control, dose response (AID 504726); assay type: functional; settings: Homo sapiens;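 note: potency for cytotoxicity as loss of luminescence signal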
[2] = target: T1, Voltage-gated N-type calcium channel alpha-1B subunit/Amyloid beta A4 precursor protein-binding family A member 1 (Homo sapiens, UniProt Q00975+Q02410); assay type: protein assay
T1 sequence (Q00975 whole entry): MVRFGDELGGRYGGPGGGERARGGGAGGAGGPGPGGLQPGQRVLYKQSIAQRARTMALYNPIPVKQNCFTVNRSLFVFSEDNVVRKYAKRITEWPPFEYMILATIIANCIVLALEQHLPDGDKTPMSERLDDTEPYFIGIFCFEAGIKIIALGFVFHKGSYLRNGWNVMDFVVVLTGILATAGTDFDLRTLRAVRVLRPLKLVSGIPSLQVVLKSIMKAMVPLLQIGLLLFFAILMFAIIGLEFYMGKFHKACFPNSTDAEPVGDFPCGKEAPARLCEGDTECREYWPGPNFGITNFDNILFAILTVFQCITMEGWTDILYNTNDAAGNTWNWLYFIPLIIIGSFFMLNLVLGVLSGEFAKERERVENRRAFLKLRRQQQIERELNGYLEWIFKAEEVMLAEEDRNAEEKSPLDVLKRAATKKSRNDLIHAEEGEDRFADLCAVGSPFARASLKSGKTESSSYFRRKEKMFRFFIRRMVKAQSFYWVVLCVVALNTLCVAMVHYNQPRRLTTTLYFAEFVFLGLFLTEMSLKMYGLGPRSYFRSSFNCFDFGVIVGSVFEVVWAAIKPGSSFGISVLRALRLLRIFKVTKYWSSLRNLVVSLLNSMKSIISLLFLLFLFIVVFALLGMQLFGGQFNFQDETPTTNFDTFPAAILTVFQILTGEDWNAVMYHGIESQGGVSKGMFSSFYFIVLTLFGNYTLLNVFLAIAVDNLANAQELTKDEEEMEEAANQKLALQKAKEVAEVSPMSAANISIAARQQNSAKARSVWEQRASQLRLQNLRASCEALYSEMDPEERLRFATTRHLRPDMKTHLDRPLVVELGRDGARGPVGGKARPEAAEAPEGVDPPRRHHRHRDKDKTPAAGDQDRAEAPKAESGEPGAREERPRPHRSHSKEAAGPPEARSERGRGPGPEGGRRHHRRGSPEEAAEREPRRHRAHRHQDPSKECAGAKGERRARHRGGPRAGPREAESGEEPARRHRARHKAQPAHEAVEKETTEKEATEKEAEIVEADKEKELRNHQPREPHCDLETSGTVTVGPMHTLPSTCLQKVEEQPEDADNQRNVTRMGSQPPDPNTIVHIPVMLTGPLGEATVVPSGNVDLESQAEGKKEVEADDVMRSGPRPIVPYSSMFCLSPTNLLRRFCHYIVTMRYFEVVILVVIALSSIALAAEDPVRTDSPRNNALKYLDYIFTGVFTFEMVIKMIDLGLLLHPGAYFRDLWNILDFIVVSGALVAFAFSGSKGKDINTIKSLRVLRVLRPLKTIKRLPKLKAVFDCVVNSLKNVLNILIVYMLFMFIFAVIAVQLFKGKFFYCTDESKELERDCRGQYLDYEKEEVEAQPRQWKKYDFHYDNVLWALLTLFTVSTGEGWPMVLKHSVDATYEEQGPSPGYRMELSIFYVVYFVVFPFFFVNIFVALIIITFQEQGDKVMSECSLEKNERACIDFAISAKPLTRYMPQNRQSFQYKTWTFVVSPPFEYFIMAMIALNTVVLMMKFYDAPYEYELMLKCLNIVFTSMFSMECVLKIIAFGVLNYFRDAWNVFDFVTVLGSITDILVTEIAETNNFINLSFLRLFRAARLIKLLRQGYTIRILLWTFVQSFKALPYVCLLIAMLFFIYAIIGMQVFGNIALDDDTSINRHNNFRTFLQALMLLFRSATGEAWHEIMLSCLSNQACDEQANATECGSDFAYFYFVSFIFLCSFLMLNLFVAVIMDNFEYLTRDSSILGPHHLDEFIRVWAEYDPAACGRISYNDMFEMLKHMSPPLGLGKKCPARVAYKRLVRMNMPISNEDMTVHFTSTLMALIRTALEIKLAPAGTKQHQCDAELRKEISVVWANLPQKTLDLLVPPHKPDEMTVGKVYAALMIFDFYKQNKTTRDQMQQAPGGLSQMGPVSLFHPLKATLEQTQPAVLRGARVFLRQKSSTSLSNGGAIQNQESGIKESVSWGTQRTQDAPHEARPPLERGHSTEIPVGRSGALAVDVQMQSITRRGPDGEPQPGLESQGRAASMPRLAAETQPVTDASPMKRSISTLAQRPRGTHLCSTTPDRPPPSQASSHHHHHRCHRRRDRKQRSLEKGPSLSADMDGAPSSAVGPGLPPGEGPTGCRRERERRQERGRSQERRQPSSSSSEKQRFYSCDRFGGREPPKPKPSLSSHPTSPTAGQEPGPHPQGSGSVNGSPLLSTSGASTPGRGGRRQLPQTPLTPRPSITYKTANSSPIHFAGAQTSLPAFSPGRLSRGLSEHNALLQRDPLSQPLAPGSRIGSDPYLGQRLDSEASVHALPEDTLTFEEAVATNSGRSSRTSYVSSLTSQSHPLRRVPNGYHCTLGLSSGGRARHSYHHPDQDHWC
T1 sequence (Q02410 whole entry): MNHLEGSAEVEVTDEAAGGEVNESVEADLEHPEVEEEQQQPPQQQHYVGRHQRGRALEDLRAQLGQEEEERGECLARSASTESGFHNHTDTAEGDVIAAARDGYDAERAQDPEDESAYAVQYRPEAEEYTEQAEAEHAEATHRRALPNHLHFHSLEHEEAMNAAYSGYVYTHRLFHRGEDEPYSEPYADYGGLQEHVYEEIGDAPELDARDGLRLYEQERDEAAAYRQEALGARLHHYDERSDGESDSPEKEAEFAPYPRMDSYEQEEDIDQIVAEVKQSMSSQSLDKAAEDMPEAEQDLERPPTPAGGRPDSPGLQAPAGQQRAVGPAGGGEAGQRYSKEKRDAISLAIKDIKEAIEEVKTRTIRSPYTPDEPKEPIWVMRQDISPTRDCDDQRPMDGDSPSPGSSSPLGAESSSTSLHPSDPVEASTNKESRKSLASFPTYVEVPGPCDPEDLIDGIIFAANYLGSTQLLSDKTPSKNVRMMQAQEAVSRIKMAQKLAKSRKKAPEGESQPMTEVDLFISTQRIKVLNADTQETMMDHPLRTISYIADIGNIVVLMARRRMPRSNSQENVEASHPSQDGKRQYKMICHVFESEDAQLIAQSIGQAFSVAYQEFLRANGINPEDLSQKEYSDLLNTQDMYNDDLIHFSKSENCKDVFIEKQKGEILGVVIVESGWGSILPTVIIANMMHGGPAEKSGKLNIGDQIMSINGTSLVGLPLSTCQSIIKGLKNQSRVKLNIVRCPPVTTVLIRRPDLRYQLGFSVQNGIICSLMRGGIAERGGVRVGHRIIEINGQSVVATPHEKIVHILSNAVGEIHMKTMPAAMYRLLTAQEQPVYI

[3] = target: T1, Voltage-gated N-type calcium channel alpha-1B subunit/Amyloid beta A4 precursor protein-binding family A member 1; assay type: protein assay; remark: listed apart in the source
[4] = luciferase reporter signal suppression in cells – H4 neuroglioma cells, luminescence, dose response (AID 1990); assay type: functional, cell-based
[5] = Luminescence Cell-Based Dose Response HTS to Identify Inhibitors of 5'UTR Stem-Loop Driven Prion Protein mRNA Translation in H4 Neuroglioblastoma Cells. [Related pubchem assays: 1827 (Project Summary), 1813 (Primary HTS)]; assay type: functional
[6] = target: T2, Heat shock factor protein 1 (Mus musculus, UniProt P38532); experiment: decrease of HSF1-responsive luciferase luminescence – cell-based, NIH3T3, dose retest, confirmation (AID 2382); assay type: functional;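 note: NIH3T3 fibroblasts with HSF1-driven luciferase reporter stressed by proteasome inhibitor MG132; luminescence from HSF1-driven luciferase expression after 8 hours of MG132 stress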
T2 sequence (P38532 whole entry): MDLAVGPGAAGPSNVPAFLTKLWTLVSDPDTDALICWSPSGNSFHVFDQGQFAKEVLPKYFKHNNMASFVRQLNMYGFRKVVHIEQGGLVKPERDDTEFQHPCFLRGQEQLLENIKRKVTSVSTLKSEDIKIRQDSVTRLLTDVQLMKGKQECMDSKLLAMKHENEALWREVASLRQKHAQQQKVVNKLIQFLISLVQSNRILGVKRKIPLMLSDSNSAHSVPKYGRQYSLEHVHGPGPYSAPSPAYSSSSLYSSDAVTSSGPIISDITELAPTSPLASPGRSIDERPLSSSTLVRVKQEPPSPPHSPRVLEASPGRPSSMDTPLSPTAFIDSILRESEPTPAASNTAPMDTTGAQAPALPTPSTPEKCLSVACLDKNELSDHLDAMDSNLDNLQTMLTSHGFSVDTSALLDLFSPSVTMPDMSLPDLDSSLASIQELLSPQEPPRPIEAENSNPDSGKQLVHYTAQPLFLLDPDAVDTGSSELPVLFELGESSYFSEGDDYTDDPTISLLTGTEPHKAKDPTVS

[7] = alpha-synuclein stem-loop luciferase translation blockers – H4 neuroglioma cells, luminescence, confirmation (AID 1988); assay type: functional, cell-based
[8] = target: Luciferin 4-monooxygenase (Photinus pyralis, UniProt P08659); experiment: inhibition of purified Photinus pyralis luciferase – biochemical, luminescence, dose response (AID 1891)
[9] = Luminescence Cell-Based Dose Confirmation HTS to Identify Inhibitors of Platelet Dense Granule Release. [Related pubchem assays: 1663 (Primary HTS), 1678 (Summary of Project)]; assay type: functional
[10] = A549 cell cytotoxicity, dose response, cytotoxicity control, plate reader, cherry-pick, antagonist series (AID 743412); assay type: functional, cell-based
[11] = blockers of bursicon-stimulated LGR2 cAMP reporter – cell-based, HEK293, CRE-luciferase reporter, cherry pick, set 2, dose response (AID 743343); assay type: functional;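 note: transfected cells were stimulated with diluted bursicon conditioned medium after compound addition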
[12] = blockade of melanocortin 4 receptor signaling – cell-based, plate reader, cherry pick, counter-screen for LGR2 antagonist project, dose response (AID 743444); assay type: functional;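 note: transfected HEK 293 cells stimulated with alpha-MSH peptide; potency of inhibitors of the alpha-MSH evoked signal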
[13] = viability loss in HEK293 cells – cell-based, plate reader, cherry-picked samples, cytotoxicity control, dose response (AID 743446); assay type: functional
[14] = tested on: Streptococcus sp. 'group A'; experiment: Streptococcus pyogenes SK(-)GAS viability under kanamycin – luminescence, BacTiterGlo, confirmation, counter-screen for streptokinase expression inhibitor project, dose response (AID 1900); assay type: functional, organism-based
Streptokinase A = target: T3, Streptokinase A (Streptococcus pyogenes serotype M1, UniProt P10520); experiment: viability-normalized secreted streptokinase activity reduction – plasminogen activation absorbance, OD405, dose response (AID 1914); assay type: functional, Streptococcus pyogenes M1 GAS;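 note: secreted streptokinase activity via plasminogen activation per viability signal from cell pellet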
T3 sequence (P10520 whole entry): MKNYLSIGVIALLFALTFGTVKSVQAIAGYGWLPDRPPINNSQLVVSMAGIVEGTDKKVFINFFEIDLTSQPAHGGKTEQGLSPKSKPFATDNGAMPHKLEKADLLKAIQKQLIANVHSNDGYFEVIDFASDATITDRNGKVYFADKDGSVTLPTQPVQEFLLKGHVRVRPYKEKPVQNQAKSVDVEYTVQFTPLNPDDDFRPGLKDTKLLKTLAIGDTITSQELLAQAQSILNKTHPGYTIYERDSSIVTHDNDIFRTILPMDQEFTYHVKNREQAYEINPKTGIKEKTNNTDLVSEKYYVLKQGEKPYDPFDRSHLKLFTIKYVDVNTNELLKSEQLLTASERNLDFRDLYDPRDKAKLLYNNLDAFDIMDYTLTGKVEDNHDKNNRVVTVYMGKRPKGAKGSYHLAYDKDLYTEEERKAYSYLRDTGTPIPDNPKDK

Streptococcus = experiment: GAS UMAA2166 growth inhibition – luminescence, BacTiterGlo, counter-screen for streptokinase expression inhibitor project, dose response (AID 1915); assay type: functional, organism-based;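 note: potency for reduction of bacterial viability or growth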
[15] = target: T4, Short transient receptor potential channel 4 (Mus musculus, UniProt Q9QUQ5); experiment: block of DAMGO-driven TRPC4 calcium entry – cell-based, HEK293 TRPC4/mu-opioid, Fluo-4 calcium, dose response (AID 434942); assay type: functional;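 note: potency of inhibitors blocking the TRPC4 calcium response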
T4 sequence (Q9QUQ5 whole entry): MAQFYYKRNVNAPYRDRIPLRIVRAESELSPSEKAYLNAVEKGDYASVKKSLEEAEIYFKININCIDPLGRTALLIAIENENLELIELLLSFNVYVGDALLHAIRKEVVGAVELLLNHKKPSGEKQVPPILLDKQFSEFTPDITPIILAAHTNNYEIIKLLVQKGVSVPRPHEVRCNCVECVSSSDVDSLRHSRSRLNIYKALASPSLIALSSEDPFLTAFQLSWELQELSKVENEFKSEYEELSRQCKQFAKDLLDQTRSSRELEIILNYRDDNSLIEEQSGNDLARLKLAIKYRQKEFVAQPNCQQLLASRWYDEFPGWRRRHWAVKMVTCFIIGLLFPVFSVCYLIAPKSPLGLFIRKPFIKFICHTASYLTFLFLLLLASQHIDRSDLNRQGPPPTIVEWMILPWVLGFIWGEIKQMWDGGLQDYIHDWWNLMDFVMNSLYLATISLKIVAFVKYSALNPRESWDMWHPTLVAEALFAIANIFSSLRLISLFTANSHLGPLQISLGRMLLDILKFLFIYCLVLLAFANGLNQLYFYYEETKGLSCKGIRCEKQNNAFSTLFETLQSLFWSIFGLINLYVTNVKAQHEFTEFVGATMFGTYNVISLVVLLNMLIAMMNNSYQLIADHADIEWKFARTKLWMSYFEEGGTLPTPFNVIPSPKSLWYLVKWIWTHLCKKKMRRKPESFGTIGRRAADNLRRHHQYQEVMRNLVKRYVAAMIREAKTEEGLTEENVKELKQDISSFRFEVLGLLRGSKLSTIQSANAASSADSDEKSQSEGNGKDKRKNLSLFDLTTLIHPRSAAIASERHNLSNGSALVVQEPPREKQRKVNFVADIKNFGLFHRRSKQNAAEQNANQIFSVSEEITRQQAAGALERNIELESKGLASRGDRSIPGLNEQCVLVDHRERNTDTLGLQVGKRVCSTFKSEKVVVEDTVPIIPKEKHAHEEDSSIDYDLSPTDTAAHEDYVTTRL

X-box-binding protein 1 = target: T5, X-box-binding protein 1 (Homo sapiens, UniProt P17861); assay type: functional, Cricetulus griseus;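 note: confirmatory dose-response counter-screen serving a CHOP assay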
T5 sequence (P17861 whole entry): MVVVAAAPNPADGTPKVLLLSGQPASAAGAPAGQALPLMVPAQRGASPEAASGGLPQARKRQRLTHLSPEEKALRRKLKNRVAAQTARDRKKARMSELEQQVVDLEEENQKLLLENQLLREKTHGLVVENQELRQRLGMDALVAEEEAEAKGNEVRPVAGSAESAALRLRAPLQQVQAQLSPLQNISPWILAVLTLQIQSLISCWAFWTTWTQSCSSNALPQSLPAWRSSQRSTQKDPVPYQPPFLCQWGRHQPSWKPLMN

[16] = THP-1 cell cytotoxicity, dose response, cytotoxicity control for non-replicating M. tuberculosis project (AID 489025); assay type: functional
cells = assay type: functional
[17] = toxicity toward HepG2 liver cells – cell-based, plate reader, cherry-pick, antagonist series, cytotoxicity control, dose response (AID 743416); assay type: functional
[18] = A cytotoxicity screen of small molecule inhibitors of the PhoP region in Salmonella typhi identified in the primary screen. [Related pubchem assays: 1850, 1864, 1985 ]; assay type: functional
[19] = target: DNA dC->dU-editing enzyme APOBEC-3A (Homo sapiens, UniProt P31941); experiment: A3A deaminase inhibition for selectivity – biochemical, dose response (AID 504722); assay type: functional
Sequence of DNA dC->dU-editing enzyme APOBEC-3A (P31941 whole entry): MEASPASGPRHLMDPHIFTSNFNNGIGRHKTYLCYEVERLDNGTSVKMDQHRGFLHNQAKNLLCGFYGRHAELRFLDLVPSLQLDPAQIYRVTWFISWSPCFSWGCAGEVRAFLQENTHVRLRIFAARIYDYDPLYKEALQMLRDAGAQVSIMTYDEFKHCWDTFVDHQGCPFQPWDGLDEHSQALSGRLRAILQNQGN

[20] = target: DNA dC->dU-editing enzyme APOBEC-3G (Homo sapiens, UniProt Q9HC16); experiment: Dose Response confirmation of small molecule APOBEC3G DNA Deaminase Inhibitors via a fluorescence-based single-stranded DNA deaminase assay. [Related pubchem assays (depositor defined):AID493012, AID493028]; assay type: functional
Sequence of DNA dC->dU-editing enzyme APOBEC-3G (Q9HC16 whole entry): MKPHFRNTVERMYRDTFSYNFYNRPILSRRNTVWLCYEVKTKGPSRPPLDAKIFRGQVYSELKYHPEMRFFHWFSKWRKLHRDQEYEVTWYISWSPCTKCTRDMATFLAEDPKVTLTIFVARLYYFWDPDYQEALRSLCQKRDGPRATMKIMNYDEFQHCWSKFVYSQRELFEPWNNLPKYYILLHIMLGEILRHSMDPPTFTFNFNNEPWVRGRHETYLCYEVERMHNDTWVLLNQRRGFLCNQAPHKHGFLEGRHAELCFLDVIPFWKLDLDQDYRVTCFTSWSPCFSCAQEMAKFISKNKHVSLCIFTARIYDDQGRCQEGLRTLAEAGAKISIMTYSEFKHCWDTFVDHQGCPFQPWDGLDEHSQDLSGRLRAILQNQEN

Large T antigen = Large T antigen (Simian virus 40, UniProt P03070); assay type: functional, Betapolyomavirus macacae;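 note: Confirmatory-stage PubChem screen for compounds that inhibit SV40 T antigen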
[21] = target: FAD-linked sulfhydryl oxidase ALR (Homo sapiens, UniProt P55789); experiment: ALR-catalysed DTT oxidation blockers – biochemical, H2O2 detection, luminescence, cherry-pick, dose response (AID 493248)
Sequence of FAD-linked sulfhydryl oxidase ALR (P55789 whole entry): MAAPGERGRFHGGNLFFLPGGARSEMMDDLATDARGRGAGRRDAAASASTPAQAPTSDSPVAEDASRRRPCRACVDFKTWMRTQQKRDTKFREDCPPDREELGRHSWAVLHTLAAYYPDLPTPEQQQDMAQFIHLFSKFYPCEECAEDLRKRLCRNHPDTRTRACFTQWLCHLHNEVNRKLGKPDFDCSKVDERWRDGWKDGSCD

Sequence of Cytochrome P450 2D6 (P10635 whole entry): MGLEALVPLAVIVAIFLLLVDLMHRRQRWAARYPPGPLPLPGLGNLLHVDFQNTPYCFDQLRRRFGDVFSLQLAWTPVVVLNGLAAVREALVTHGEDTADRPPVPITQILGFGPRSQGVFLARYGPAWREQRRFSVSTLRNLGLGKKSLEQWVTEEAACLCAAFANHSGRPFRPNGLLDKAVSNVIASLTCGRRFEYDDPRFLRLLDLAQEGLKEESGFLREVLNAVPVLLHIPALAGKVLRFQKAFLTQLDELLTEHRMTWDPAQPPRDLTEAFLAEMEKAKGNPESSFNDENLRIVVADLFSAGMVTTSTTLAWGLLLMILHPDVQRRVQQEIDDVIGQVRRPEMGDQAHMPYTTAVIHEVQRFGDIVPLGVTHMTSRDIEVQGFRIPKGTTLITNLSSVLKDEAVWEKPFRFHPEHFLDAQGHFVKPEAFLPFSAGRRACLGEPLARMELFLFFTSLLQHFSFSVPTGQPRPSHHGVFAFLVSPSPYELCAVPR

Compound: Oc1ccc(C2Nc3cccc4cccc(c34)N2)c(O)c1
- CC50 [1]: > 40 µM (active)
- AC50 (Cytochrome P450 2D6): 25.1 µM (inconclusive)

Compound: COCCNC(=O)[C@H](C)/C=C/C(NC(=O)OCc1ccccc1)c1ccc(C(=O)OC)cc1 (stereo not given in full)
- AC50 (Cytochrome P450 3A4): 7.94 µM (inconclusive)

Compound: CN(C)c1ccc(/C=C2\CCCN=C2c2cccnc2)cc1
- AC50 (Cytochrome P450 3A4): 10 µM (inconclusive)

Compound: COc1cccc(NC(=O)CN(C)CC(=O)NCc2ccco2)c1
- AC50 (HeLa): 115 µM (active)

Compound: COC(=O)[C@@H]1C[C@@]2(O)[C@H](O)[C@H](O)[C@H](O)C[C@H]2N1Cc1c(F)cccc1Cl
- AC50 (Cytochrome P450 3A4): 25.1 µM (inconclusive)

Compound: CCOC(=O)C(C)(C)N(Cc1ccccc1C)S(=O)(=O)c1ccc(Cl)c([N+](=O)[O-])c1
- AC50 (HeLa): 29.8 µM (active)

Compound: CC1=C(C(=O)O)N2C(=O)[C@@H](NC(=O)CCCC(=O)O)[C@H]2SC1
- IC50 [2]: 34 µM (active)
- IC50 [3]: > 50 µM (inactive)

Compound: O=C(Nc1ccc(-c2nc3cccnc3s2)cc1)C1CCCO1 (stereo not given)
- EC50 [4]: 6.46 µM (inconclusive)
- EC50 [5]: 6.12 µM (active)
- EC50 [6]: 11.3 µM (active)
- EC50 [7]: 4.56 µM (active)
- EC50 [8]: 6.36 µM (active)
- EC50 [9]: 4.58 µM (active)
- AC50 [10]: > 52 µM (inactive)
- AC50 [11]: 1.98 µM (active)
- AC50 [12]: 2.45 µM (active)
- AC50 [13]: 38.4 µM (active)

Compound: CCN(c1ccc(C)cc1C)S(=O)(=O)c1nnc(NC(=O)c2ccco2)s1
- EC50 [14]: 2.15 µM (active)
- EC50 (Streptokinase A): 17.5 µM (active)
- EC50 (Streptococcus): 43.1 µM (active)
- AC50 (HeLa): 60.2 µM (active)

Compound: C=CCN(CC(O)c1cccc([N+](=O)[O-])c1)C(C)CCc1ccccc1 (stereo not given)
- EC50 [6]: > 195 µM (not active)
- EC50 [15]: 3.35 µM (active)

Compound: O=C(Nc1cc(Cl)ccc1O)c1cc2n(n1)C(C(F)(F)F)CC(c1ccc3c(c1)OCO3)N2 (stereo not given)
- Absolute IC50 (XBP1) (X-box-binding protein 1): 10 µM

Compound: CCCCNCC1C(Oc2ccc(Cl)cc2)C(=O)N1c1ccccc1C (stereo not given)
- EC50 [15]: 4.22 µM (active)

Compound: Cc1ccc(C(=O)n2c(N)nc3ccccc32)cc1
- EC50 [14]: 13.2 µM (active)
- EC50 (Streptokinase A): > 150 µM (not active)
- EC50 (Streptococcus): 115 µM (active)
- CC50 [16]: > 40 µM (active)
- IC50 (cells): 6.64 µM (active)
- AC50 [10]: 24.9 µM (active)
- AC50 [17]: > 52 µM (inactive)
- AC50 [11]: 1.44 µM (active)
- AC50 [12]: 1.43 µM (active)
- AC50 [13]: > 52 µM (inactive)

Compound: COc1ccc(CC(=O)N(Cc2cc3cc(OC)ccc3nc2O)C(C)C)cc1
- EC50 [18]: > 50 µM (active)

Compound: O=C(CCn1cccc1)Nc1ccc(OC(F)(F)F)cc1
- EC50 [18]: > 50 µM (active)

Compound: C1=Nc2ccccc2CN1c1ccccc1
- EC50 [18]: > 50 µM (active)

Compound: COc1ccc(C2=NCC(=O)N(CC(=O)NCc3ccco3)c3sc4c(c32)CCCC4)cc1OC
- CC50 [1]: > 40 µM (active)

Compound: O=C(O)CN(CC(=O)O)Cc1cc2c(-c3ccccc3C(=O)O)c3cc(CN(CC(=O)O)CC(=O)O)c(=O)cc-3oc2cc1O
- AC50 (Cytochrome P450 3A4): 20 µM (inconclusive)

Compound: Cc1nnc(S)n1/N=C/c1c(O)ccc2ccccc12
- IC50 [19]: > 100 µM (inactive)
- IC50 [20]: 2.42 µM (active)

Compound: O=C1C2C(C(=O)N1/N=C/c1ccc(N3CCCCC3)o1)C1C=CC2C12CC2 (stereo not given)
- IC50 [2]: 7.24 µM (active)
- IC50 [3]: 20.1 µM (active)

Compound: COc1cc(/C=N/n2c(S)nnc2-c2[nH]nc3c2CCC3)cc(OC)c1O
- IC50 (Large T antigen): 24 µM (active)
- IC50 [19]: > 100 µM (inactive)
- IC50 [20]: 1.81 µM (active)
- AC50 [21]: 0.011 µM (active)
